This experiment concerns M. tuberculosis clinical isolates. In words: MIC against clinical strains (BACTEC MGIT 960 System). The format is cell-based. The following applies: Mycobacterium tuberculosis.
The mark [1] stands for this setting: strain 123, resistant clinical isolate, resistance HSERZKTACp.
Where [2] appears, read: strain 139, resistant clinical isolate, resistance HSERZKTACp.
[3] abbreviates: strain 141, resistant clinical isolate, resistance HRT.
Setting [4] is: strain 167, resistant clinical isolate, resistance HSRZ.
Setting [5] is: strain 175, resistant clinical isolate, resistance S.
[6] abbreviates: strain 198, resistant clinical isolate, resistance H.
[7] abbreviates: strain 242, resistant clinical isolate, resistance H.
[8] abbreviates: strain 330, resistant clinical isolate, resistance HSR (Tables 2B, 2D).
Where [9] appears, read: strain 1672, resistant clinical isolate, resistance HSRZ.
[10] abbreviates: strain 1819, resistant clinical isolate, resistance HSRZ.

One may read the MIC as the smallest concentration in the dilution series that meets the test's criterion for growth inhibition. The low end stands for a more susceptible organism, the high end for a less susceptible organism. Take `Cl.NC[C@H]1OB2OCCOc3ccc(Cl)c1c32` [Example 4, (S)-(3-chloro-7,8-dihydro-2H-1,6,9-trioxa-9a-borabenzo[cd]azulen-2-yl)methanamine hydrochloride]: the MIC runs as follows: (strain 106, resistant clinical isolate, resistance HR) 0.16 µM; under setting [1], 0.16 µM; under setting [2], 0.08 µM; under setting [3], 0.08 µM; under setting [4], 0.08 µM; under setting [5], 0.08 µM. The minimal inhibitory concentration (MIC) by setting is: (strain 192, resistant clinical isolate, resistance HS) 0.31 µM; under setting [6], 0.08 µM; (strain 201, resistant clinical isolate, resistance HRE) 0.08 µM; (strain 202, resistant clinical isolate, resistance S) 0.08 µM; under setting [7], 0.08 µM; (strain 254, resistant clinical isolate, resistance H) 0.16 µM. Besides, the MIC reads like this: (strain 277, resistant clinical isolate, resistance H) 0.08 µM; (strain 297, resistant clinical isolate, resistance HSR) 0.16 µM; (strain 330, resistant clinical isolate, resistance HS) 0.08 µM; under setting [8], 0.08 µM; (strain 330, resistant clinical isolate, resistance RSR) 0.04 µM; (strain 409, resistant clinical isolate, resistance HR) 0.08 µM. The MIC reads like this: (strain 415, resistant clinical isolate, resistance HRT) 0.08 µM; (strain 514, resistant clinical isolate, resistance HSRT) 0.08 µM; (strain 562, resistant clinical isolate, resistance HSERZKTA) 0.08 µM; (strain 605, resistant clinical isolate, resistance HSERZACp) 0.16 µM; (strain 670, resistant clinical isolate, resistance HRZ) 0.04 µM; (strain 709, resistant clinical isolate, resistance S) 0.08 µM. In addition, the MIC was 0.08 µM (strain 732, resistant clinical isolate, resistance S); 0.08 µM under setting [9]; at most 0.02 µM under setting [10]; 0.31 µM (strain CR, resistant clinical isolate, resistance HSERZ).
In turn, `NC[C@H]1OB2OCCOc3ccc(Cl)c1c32` [Example G4-Cl] showed an MIC (for more than 85 clinical isolate strains of 97 tested (sensitive and resistant)) below 1 µM.
Regarding `Cl.NC[C@H]1OB2OCCOc3ccc(Br)c1c32` [Example 2, (S)-(3-bromo-7,8-dihydro-2H-1,6,9-trioxa-9a-borabenzo[cd]azulen-2-yl)methanamine hydrochloride], the minimal inhibitory concentration (MIC) under setting [1] came out at 0.08 µM; the MIC under setting [2] was determined as 0.08 µM; the MIC under setting [3] amounted to 0.08 µM; the minimal inhibitory concentration (MIC) under setting [4] was 0.08 µM; the MIC under setting [5] worked out at 0.08 µM; the MIC under setting [6] stood at 0.08 µM. Further, the MIC runs as follows: under setting [7], 0.08 µM; under setting [8], 0.08 µM; under setting [9], 0.08 µM; under setting [10], 0.04 µM.

Source of the values: patent publication US10526352B2, “Tricyclic benzoxaborole compounds and uses thereof” (GlaxoSmithKline Intellectual Property (No.2) Limited, priority 2013, dated 2020).
